Among the data in PubChem BioAssay (NCI) are GI50 and TGI values, retold here.

Experiment in all cases: NCI tumour cell line growth inhibition, 48 h
Experiment [1] has as its system BT-549 breast.
For experiment [2], the system named is HCT-116 colon.
In experiment [3] the test system is HS 578T breast.
Experiment [4] concerns K-562 leukemia.
For experiment [5], the system named is KM12 colon.
Experiment [6] deals with LOX IMVI melanoma.
Experiment [7] relates to MOLT-4 leukemia.
The test system of experiment [8] is NCI-H522 lung.
Experiment [9] deals with OVCAR-4 ovarian.
Experiment [10] relates to SF-295 CNS.

Values joined by “and” are separate entries in the source; they are usually repeats but may differ in a detail not shown here. Identical values can stand only once.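 Cultured in 96-well plates, cells were exposed to test compound for 48 hours across five concentrations. GI50: concentration for 50% inhibition of growth. TGI: total growth inhibition.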

Turning to `c1ccc(OCC[P+](c2ccccc2)(c2ccccc2)c2ccccc2)cc1`, the GI50 was 1.65 µM in experiment [1]; 0.491 µM in experiment [2]; 2.27 µM in experiment [3]; 0.743 µM in experiment [4]; 1.31 µM in experiment [5]; 0.926 µM in experiment [6]. Besides, the GI50 was 3.89 µM in experiment [7], 0.335 µM in experiment [8], 0.66 µM in [9] and 2.05 µM in experiment [10]. Also, the TGI is 12 µM in experiment [1]; 11.3 µM in experiment [2]; 16.5 µM in experiment [3]; above 85.5 µM in experiment [4]; 8.84 µM in experiment [5]; 9.68 µM in experiment [6]. Also, the TGI in experiment [7] was 27.2 µM; in experiment [8], 3.74 µM; in [9] it was 9.44 µM; in [10], 15.7 µM.
On to `C/C=C1/CN2CCC34c5ccccc5N5C(=O)C(C6CC78c9ccccc9N9C(=O)C=CC(C%10CC7N6C/C%10=C/C)C98)=CC(C1CC23)C54` (stereo not drawn), for which the TGI in [1] is 16.4 µM and 21.9 µM; in [2] it was 12.1 µM and 5.45 µM; in experiment [3], 20.9 µM and 73.2 µM; in [4], 50 µM; in experiment [5], 36.8 µM and 12.2 µM; in experiment [6], 26 µM. In addition, the TGI in experiment [7] was 5.56 µM; in experiment [8] it was 11 µM and 27.2 µM; in experiment [9] it was 32.9 µM and 22.4 µM; in [10], 19.6 µM and 32.7 µM. Also, the GI50 in experiment [2] was 2.3 µM; in experiment [3], 16.6 µM; in experiment [5], 2.94 µM; in experiment [8] it was 8.97 µM; in [10], 15.9 µM.
With `COc1ccc(COc2ccc(Cc3cnc(N)nc3N)cc2OC)cc1`, the GI50 in experiment [1] is 12.1 µM; in [2], 14.6 µM; in experiment [3] it was above 23.4 µM; in experiment [4] it was 8.19 µM; in experiment [5], 1.03 µM; in experiment [6], above 25 µM. The GI50 in experiment [7] is above 25 µM; in experiment [8], above 25 µM; in experiment [9], 11 µM; in [10], 10.4 µM. The TGI in [1], in experiment [2], in experiment [3], in experiment [4], in experiment [5] and in experiment [6] was above 25 µM throughout. For the same molecule, the TGI in [7], in experiment [8], in experiment [9] and in [10] was above 25 µM in each case.
In the case of `CNC(=O)c1cc(Oc2ccc(NC(=O)Nc3ccc(Cl)c(C(F)(F)F)c3)cc2)ccn1`, the GI50 is 3.01 µM and 2.29 µM and 3.16 µM in [1]; 1.74 µM and 1.5 µM and 1.9 µM in [2]; 2.96 µM and 2.33 µM and 2.59 µM in experiment [3]; 1.7 µM and 2.5 µM and 2.53 µM in experiment [4]; 2.42 µM and 1.86 µM and 1.8 µM in experiment [5]; 2.52 µM and 1.5 µM and 1.67 µM in experiment [6]. Besides, the GI50 in experiment [7] is 2.38 µM and 3.15 µM and 2.87 µM; in experiment [8], 1.79 µM and 2.14 µM and 2.06 µM; in experiment [9], 3.07 µM and 3.67 µM and 3.42 µM; in experiment [10], 2.34 µM and 1.83 µM and 1.69 µM. The TGI in [1] is > 10 µM and 5.23 µM and 8.69 µM; in experiment [2], > 10 µM and 4.21 µM and 7.48 µM; in experiment [3], > 10 µM and 8.47 µM and 16.4 µM; in experiment [4], above 100 µM; in [5], > 10 µM and 8.07 µM and 6.97 µM; in [6] it was > 10 µM and 3.3 µM and 4.31 µM. For the same molecule, the TGI is 5.79 µM and 5.64 µM and 6.29 µM in experiment [8]; > 10 µM and 11.5 µM and 22.2 µM in [9]; > 10 µM and 5.33 µM and 4.56 µM in [10].
On to `Cc1cccc(Nc2ncc(-c3ccccc3)o2)c1`, for which the GI50 in experiment [1] was above 25 µM; in experiment [2] it was above 25 µM; in experiment [3], above 7 µM; in experiment [4] it was above 25 µM; in experiment [5] it was 8.04 µM; in experiment [6], above 25 µM. The GI50 in experiment [7], in [8], in [9] and in experiment [10] was above 25 µM in each case. For the same molecule, the TGI in experiment [1], in experiment [2], in [3], in [4], in [5] and in experiment [6] was above 25 µM throughout. For the same molecule, the TGI in experiment [7], in experiment [8], in experiment [9] and in experiment [10] was above 25 µM throughout.
Take `CCN(Cc1c(F)cccc1C(F)(F)F)c1ccc(CO)c(Cl)c1`: the GI50 in experiment [1] is 17.7 µM; in [2], below 0.0371 µM; in [3], 18.3 µM; in experiment [4], 0.692 µM; in experiment [5] it was 14.1 µM; in experiment [6] it was 18.1 µM. For the same molecule, the GI50 was 16.5 µM in [7], 12.6 µM in experiment [8] and 0.132 µM in experiment [9]. Also, the TGI in [1] turned out to be 32 µM; in experiment [2], 11.8 µM; in [3], 42.1 µM; in experiment [4], 13 µM; in experiment [5], 29.4 µM; in experiment [6] it was 33.3 µM. The TGI turned out to be 37.1 µM in experiment [7], 27 µM in experiment [8], 9.9 µM in experiment [9] and 1.12 µM in experiment [10].
On to `c1ccc2c(c1)CCCc1nnc3nc4ccccc4n3c1-2`, for which the GI50 in experiment [1] was 11.5 µM; in experiment [2], 3.35 µM; in experiment [3] it was 20.5 µM; in [4], 3.87 µM; in [5], 5.37 µM; in experiment [6] it was 2.61 µM. The GI50 in experiment [7] was 4.49 µM; in experiment [8] it was 12.7 µM; in experiment [9], 3.98 µM; in experiment [10] it was 9.01 µM. The TGI in experiment [1] is above 100 µM; in experiment [2] it was 13.8 µM; in experiment [3] it was above 100 µM; in experiment [4] it was above 100 µM; in experiment [5] it was 27.6 µM; in experiment [6], 10.9 µM. The TGI in experiment [7] is above 100 µM; in experiment [8] it was 33 µM; in experiment [9] it was above 100 µM; in [10], above 100 µM.
